From BigSolDB 2.1

Nc1ccc(Sc2ccc([N+](=O)[O-])cc2)cc1
Conditions | solubility (mole fraction)
in chlorobenzene, 291.25 K | 0.011
in chlorobenzene, 296.55 K | 0.0133
in chlorobenzene, 301.75 K | 0.0174
in chlorobenzene, 306.25 K | 0.019
in chlorobenzene, 311.35 K | 0.0225
in chlorobenzene, 316.65 K | 0.0275
in chlorobenzene, 321.25 K | 0.0314
in chloroform, 288.35 K | 0.0218
in chloroform, 293.55 K | 0.0264
in chloroform, 298.45 K | 0.0307
in chloroform, 303.65 K | 0.0361
in chloroform, 309.25 K | 0.0433
in dichloromethane, 287.45 K | 0.0244
in dichloromethane, 290.95 K | 0.0275
in dichloromethane, 293.75 K | 0.0299
in dichloromethane, 297.15 K | 0.0339
in ethyl acetate, 290.45 K | 0.0511
in ethyl acetate, 295.65 K | 0.0575
in ethyl acetate, 300.45 K | 0.063
in ethyl acetate, 305.65 K | 0.0709
in ethyl acetate, 309.15 K | 0.0766
in ethyl acetate, 313.65 K | 0.0836
in ethyl acetate, 318.25 K | 0.0911
in n-butanol, 292.55 K | 0.0018
in n-butanol, 297.75 K | 0.0024
in n-butanol, 302.65 K | 0.0031
in n-butanol, 307.65 K | 0.004
in n-butanol, 312.35 K | 0.005
in n-butanol, 317.55 K | 0.0061
in n-butanol, 322.25 K | 0.0081
in toluene, 289.75 K | 0.0183
in toluene, 294.55 K | 0.0214
in toluene, 299.65 K | 0.0241
in toluene, 304.75 K | 0.0283
in toluene, 309.35 K | 0.0337
in toluene, 314.55 K | 0.0385
in toluene, 319.35 K | 0.0448
in toluene, 324.65 K | 0.0506
